# According to article PMC4311633, “Effects of RAMEA-complexed polyunsaturated fatty acids on the response of human dendritic cells to inflammatory signals” (Beilstein Journal of Organic Chemistry, 2014):
# What was measured:
# [1] = Solubility in 20% randomly methylated CD solutions and complexation efficiency, DHA; format: physicochemical; conditions: calculated from solubility data in 20% CD solution, 24 h, rt
# Method: (§1) The complexation efficiency calculated from the solubility data characterize the affinity of the various methylated CDs toward the lipids studied (Table 1). The complex association constants were not calculated because the intrinsic solubility in water is so low that it cannot be determined with a precision sufficient for the calculations.
# (§2) The solubility of fatty acids in CD solutions was determined by adding PUFAs to the aqueous solutions at 20% RAMEA, RAMEB or RAMEG, respectively, stirring for 24 h at rt and then analyzed the filtered saturated solutions by HPLC using Hypersil ODS column (4 × 125 mm, particle size 5 μm) with guard column, mobile phase: acetonitrile/water 75:25 with 0.15% concentrated phosphoric acid, 2.0 mL/min flow rate, at 40 °C and UV detection at 210 nm.
# [2] = Solubilization of n−3 PUFAs in aqueous methylated CD solutions; format: physicochemical; conditions: aqueous solution of 20% CD vs distilled water
# Method: Cyclodextrins (CDs) are efficient solubilizers of lipids. […] The solubilizing effect of RAMEA in the case of n−3 PUFAs seems to be high enough for using it as a solubilizer without the risk of interaction with cholesterol-rich lipid rafts in the cell membrane.
# as §2
# [3] = Solubility in 20% randomly methylated CD solutions and complexation efficiency, EPA; format: physicochemical; conditions: calculated from solubility data in 20% CD solution, 24 h, rt
# Method: as §1, §2
# [4] = Solubility in 20% randomly methylated CD solutions and complexation efficiency, cholesterol; format: physicochemical; conditions: for Solubilization of cholesterol: aqueous solution of 20% CD vs distilled water; for Complexation efficiency for Cholesterol: calculated from solubility data in 20% CD solution, 24 h, rt
# [5] = Solubility in 20% randomly methylated CD solutions and complexation efficiency, ALA; format: physicochemical; conditions: calculated from solubility data in 20% CD solution, 24 h, rt
# Method: as §1, §2
# [6] = tested on: GPR120 receptor expression in moDC; test: GPR120 expression in moDC by Q-PCR; format: cell-based, human; conditions: 20 µM/mL; LPS-activated moDC; Q-PCR normalized to cyclophilin
# Method: (§3) Peripheral blood mononuclear cells (PBMC) were separated from buffy coats by Ficoll gradient centrifugation (Amersham Biosciences, Uppsala, Sweden). Monocytes were isolated by positive selection using magnetic cell separation with anti-CD14-conjugated microbeads (Miltenyi Biotech, Bergisch Gladbach, Germany). […] The purified cells were cultured at a density of 10^6 cells/mL in serum free AIMV medium supplemented with 80 ng/mL granulocyte-macrophage colony stimulating factor (GM-CSF) purchased from Gentaur and 50 ng/mL IL-4 from Peprotech.
# (§4) On day 0 and day 2 of the in vitro moDC differentiation process the cultures were supplemented with GM-CSF and IL-4 and were treated with 20 µM/mL n−3 PUFAs. On day 5 the fully differentiated cells were activated by 500 ng/mL bacterial lipopolysaccharide (LPS) (Sigma Aldrich) or by 500 ng/mL Poly(I:C) (InvivoGen, San Diego, CA, USA) or were left untreated. The negative controls were treated by DMSO or by 20 µM/mL RAMEA. The positive controls were stimulated by LPS or Poly(I:C) in the absence of PUFAs.
# GPR120 expression levels were measured by real-time quantitative PCR (Q-PCR). […] Q-PCR was performed using the ABI StepOne Real Time PCR System (Applied Biosystems) and cycle threshold values were determined by using the StepOne v2.1 Software (Applied Biosystems).
# [7] = tested on: CD1a cell surface protein in moDC; test: CD1a cell surface expression in moDC by flow cytometry; format: cell-based, human; conditions: 20 µM/mL, resting, LPS- or Poly(I:C)-activated moDC; for Expression of CD1a protein on the surface of moDC: RAMEA-complexed PUFA compared with DMSO/ethanol form
# Method: as §3, §4
# Phenotyping of moDC was performed by flow cytometry using anti-CD83-PE and anti-CD1a-FITC specific antibodes from BioLegend at the protein level (San Diego, CA, USA). Fluorescence intensities were measured with FACSCalibur (BD Biosciences). Data analysis was performed with the FlowJo software (Tree Star, Ashland, OR, USA).
Complexation efficiency for DHA [1],Solubilization of n−3 PUFAs [2],Complexation efficiency for EPA [3],Complexation efficiency for Cholesterol [4],Complexation efficiency for ALA [5],GPR120 receptor expression [6],Compound,Solubilization of cholesterol [4],Proportion of inflammatory CD1a+ cells ([7]; PUFA dissolved in DMSO/ethanol),Expression of CD1a protein on the surface of moDC [7]
0.35,solubilized,0.41,0.08,0.43,–,randomly methylated β-cyclodextrin [RAMEB],cholesterol could be dissolved by RAMEB only,–,–
–,–,–,–,–,induced preferentially by DHA,"CC/C=C\C/C=C\C/C=C\C/C=C\C/C=C\C/C=C\CCC(=O)O [DHA, docosahexaenoic acid]",–,"more efficient in decreasing the proportion of inflammatory CD1a^+ cells, than ALA or EPA",solubilization method did not influence the effects
–,–,–,–,–,–,"CC/C=C\C/C=C\C/C=C\CCCCCCCC(=O)O [ALA, α-linoleic acid]",–,–,solubilization method did not influence the effects
0.10,solubilized,0.21,<0.001,0.25,–,randomly methylated α-cyclodextrin [RAMEA],Neither RAMEA nor RAMEG could solubilize cholesterol to a measurable extent,–,–
